Laboratory results from patent US7166569B2, “Method for the prevention of transplant rejection” (priority 1994, dated 2007).

What was measured:
[1] = Experiment 1: administration of arginine (an HGH releaser) and DHEA to a human patient, fasting blood analysis; type: in vivo
Source text: A human patient was placed on a standardized regimen of nutrient intake for two weeks to establish a baseline prior to ingesting any HGH releasing agents. The evening prior to blood analysis, the same evening meal was consumed (salmon, potato, white wine, vegetables, and Caesar salad). Upon establishing basal values for glucose, insulin, somatomedin C (a marker for growth hormone), DHEA-sulfate, serum lipids, and testosterone, a daily regimen of ingesting 15 grams of arginine just before bedtime was instituted. This regimen was maintained for one week, after which a new baseline was obtained. The evening following this new baseline measurement, DHEA was ingested at a dose of 180 mg (two 90 mg capsules taken simultaneously) at the same time as the arginine. This was continued for one week and the baseline levels of metabolites were rechecked. Finally, for the last week, the arginine dose was administered every other day or at 7.5 g/day while DHEA levels were maintained. Thus, the data points are as follows: • 1: Baseline—begin 15 gm/day administration of arginine; • 2: Day 7—begin 180 mg/day DHEA; • 3: Day 14—begin 15 gm arginine every other day or 7.5 g/day; and • 4: Day 21—end of experiment, no arginine administered the previous night.

[2] = Independent experiment: IGF-1 level after arginine ingestion; type: in vivo; settings: two hours after arginine ingestion; basal 223 ng/ml
Source text: This drop was sustained as long as arginine administration was continued. […] Others have also measured somatomedin C levels following arginine ingestion or infusion, and found them to be depressed despite good release of HGH. There is no explanation for this paradox, but it is not material to the fact that HGH is released by arginine and that released HGH does elevate insulin and that DHEA does block this insulin-elevating effect.

[3] = humans, arginine ingestion or infusion; cited from earlier work
[4] = cited from earlier work
[5] = Experiment 2: administration of HGH and DHEA, blood metabolite levels; type: in vivo, human
Method: As in the first experiment, a standard dietary regimen was followed the evening before each blood sample was collected. HGH administration was initiated one day after a baseline blood sample was drawn. HGH was injected subcutaneously at a dose of approximately 0.018 mg/kg/day, every other night, and was injected near midnight prior to blood collection the following morning. Blood was collected between 10:30 and 11:00 a.m. The second blood sample was taken on day 8, or just over 7 days after beginning HGH injections (4 injections in total to that time). After this second blood sample, a “wash out” period of two days was allowed prior to reinitiating injections according to the same schedule. On day 9, during the HGH “wash out” period, a priming dose of 200 mg of DHEA was taken in divided doses to prepare the patient for the HGH. The second round of injections was done simultaneously with the ingestion of two 100 mg capsules of DHEA, beginning on the evening of day 10. This regimen continued for a total of 4 HGH injections, culminating in the final injection on day 16 and blood sampling on day 17. Two hundred mg of DHEA were taken also on the nights between HGH injections, at the normal time. HGH injections were administered near midnight of the day stated.

C[C@]12CC[C@H](O)CC1=CC[C@@H]1[C@@H]2CC[C@]2(C)C(=O)CC[C@@H]12 [DHEA, dehydroepiandrosterone]
insulin level at point 4 ([1]; day 21, DHEA maintained, arginine every other day, none the night before): returned to basal levels | fasting serum insulin, % of basal levels ([1]; point 3, day 14, 180 mg/day DHEA with continuing undiminished 15 g/day arginine): 76%

N=C(N)NCCC[C@H](N)C(=O)O [arginine]
IGF-1 level after arginine ingestion [2]: 166 ng/mL | insulin determination after only 3 days of arginine ingestion ([1]; 3 days of arginine, data not shown in FIG. 1): normal insulin level | somatomedin C (IGF-1) levels in response to oral arginine ([1]; FIG. 5, sustained as long as arginine was continued): DROP | circulating level of DHEA-sulfate, point 4 versus point 3 ([1]; fall in arginine ingestion, no drop in DHEA ingestion): fell | glucose concentration ([1]; fasting serum, during introduction and tapering off of arginine): no change | fasting serum insulin rise in response to arginine ingestion ([1]; point 2, day 7, 15 g/day arginine at bedtime, no DHEA): ~50% | DHEA-sulfate, endogenous change ([1]; point 2 versus point 1, arginine only, no DHEA ingested): noticeable increase | time for insulin to fall back to baseline after arginine [3]: 1 to 2 h | time to peak of insulin levels after arginine [3]: ≤ 30 min

Chromium picolinate
extension of the life span of animals [4]: 50%

HGH: recombinant or natural human growth hormone
insulin rise prior to DHEA ingestion ([5]; HGH approx. 0.018 mg/kg/day s.c. every other night, day 8): 57% | DHEA-sulfate change ([5]; HGH only): unaltered | circulating DHEA levels, depression ([5]; HGH only): a third | Insulin level ([5]; serum, by stage of experiment, baseline 6.6): 10.4 uU/ml | IGF-1 level ([5]; serum, by stage of experiment, baseline 27.0): 35.5 µg/dL | DHEA-sulfate level ([5]; serum, by stage of experiment, baseline 146): 146 µg/dL | DHEA level ([5]; serum, by stage of experiment, baseline 360): 240 ng/dL
